Data: US20220356398A1, “Composition and Method for Improving the Water Transport Characteristics of Hydrophobic Soils” (Ethox Chemicals, LLC, priority 2021, published 2022)

Experiments:
[1] = Compatibility with the soil treatment polymers; assay type: physicochemical
Description: (§1) Soil treatment polymers are relatively non-polar organic materials with limited water solubility.

[2] = Humic acid removal (detergency)
Description: as §1

monophosphate of POE (6) decyl alcohol
compatibility with the soil treatment polymers [1]: good compatibility
humic acid removal properties [2]: good humic acid removal properties
